In BindingDB's records for doi:10.1021/jm050224y (Philipps-Universitat Marburg, 2005):

Molecular target: T1, Dimer of Gag-Pol polyprotein [489-587] (Human immunodeficiency virus 1, UniProt P12497)
T1 construct: 489-587
Test: Protease Inhibition Assay
Settings: pH 5.5; 25 °C
Protocol: The inhibition assays were performed by mixing enzyme and fluorogenic substrate in the presence of inhibitor compounds. The hydrolysis of the substrate was recorded as an increase of the fluorescence intensity. Ki values were calculated from the IC50 values taken from a dose-response curve with the fluorescent assay using the equation Ki = (IC50 - [E]/2)/ (1 +[S]/Km), where [E] and [S] are the protease and substrate concentrations, Km is the Michaelis-Menten constant.

Row | Structure (SMILES) | IC50 [µM] | Ki [µM]
1 | O=C(N[C@H](Cc1cccc(Br)c1)[C@@H](O)C[C@@H](CCc1ccc(Cl)cc1Cl)S(=O)(=O)c1ccc(F)cc1)[C@H]1CCCO1 [(2R)-N-{(1R,2S,4R)-1-(3-bromobenzyl)-6-(2,4-dichlorophenyl)-4-[(4-fluorophenyl)sulfonyl]-2-hydroxyhexyl}tetrahydrofuran-2-carboxamide] | > 40 | > 40
2 | O=C(N[C@@H](Cc1cccc(Br)c1)[C@H](O)C[C@H](CCc1ccc(Cl)cc1Cl)S(=O)(=O)c1ccc(F)cc1)[C@H]1CCCO1 [(2R)-N-{(1S,2R,4S)-1-(3-bromobenzyl)-6-(2,4-dichlorophenyl)-4-[(4-fluorophenyl)sulfonyl]-2-hydroxyhexyl}tetrahydrofuran-2-carboxamide] | 4.2 | –
3 | CC(C)CCS(=O)(=O)[C@@H](C)C[C@@H](O)[C@H](Cc1cccc(Br)c1)NC(=O)CCS(C)(=O)=O [N-{(1S,2R,4S)-1-(3-bromobenzyl)-2-hydroxy-4-[(3-methylbutyl)sulfonyl]pentyl}-3-(methylsulfonyl)propanamide] | > 40 | > 40
